Experimental data from ChEMBL document CHEMBL5370607 (J Med Chem, 2023).
Active and inactive are the calls of the source. The calls are words filed in the database; no cut-off is given here.

How the values were obtained:
Rattus norvegicus = experiment: Antialzheimer activity against scopolamine-induced cognitive impairment in Sprague-Dawley rat assessed as reduction in short-term memory deficits at 1 to 3 mg/kg, ip administered for 30 mins followed by scopolamine induction measured after 30 mins by NOR test; type: functional, organism-based; conditions: dose 1-3 mg/kg, time 60.0 min
[1] = molecular target: T1, Amine oxidase [flavin-containing] B (Homo sapiens, UniProt P27338); conditions: 0.5 h, time 30 min
T1 sequence (P27338 whole entry): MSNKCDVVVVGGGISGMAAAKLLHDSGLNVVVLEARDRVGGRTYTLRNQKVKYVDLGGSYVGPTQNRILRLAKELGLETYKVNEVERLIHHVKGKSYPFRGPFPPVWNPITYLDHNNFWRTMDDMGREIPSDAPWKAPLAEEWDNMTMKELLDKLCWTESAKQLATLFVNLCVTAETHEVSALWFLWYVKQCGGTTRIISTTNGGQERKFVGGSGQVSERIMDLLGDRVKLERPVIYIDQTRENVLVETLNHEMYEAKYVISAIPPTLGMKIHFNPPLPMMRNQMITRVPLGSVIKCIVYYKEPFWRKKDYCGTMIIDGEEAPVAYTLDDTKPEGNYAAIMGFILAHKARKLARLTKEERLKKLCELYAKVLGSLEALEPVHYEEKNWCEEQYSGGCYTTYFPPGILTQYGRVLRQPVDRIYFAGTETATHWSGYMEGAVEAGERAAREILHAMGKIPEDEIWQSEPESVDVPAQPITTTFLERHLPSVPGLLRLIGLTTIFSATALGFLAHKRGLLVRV

For `COc1cc2c(cc1OC)C(=O)C(CC1CCN(Cc3ccccc3)CC1)C2` (stereo not drawn), the Activity (Rattus norvegicus) was “Active”.

`Clc1cccc(CNc2cc(N3CCNCC3)nc3ccccc23)c1` gave an inhibition at 1 µM [1] of 7%.

`Clc1cccc(CNc2ccnc(N3CCNCC3)c2)c1` was tested, and the inhibition at 1 µM [1] was 3%.
